These results are taken from patent US8318422B2, “Antibacterial treatment of osteoarthritis” (Orthogenics AS, priority 2001, dated 2012).

Experiment [1] relates to Pseudomonas. Conditions: cited from earlier work.
In experiment [2] the test system is Pseudomonas. The note with it: cited from earlier work. The source holds these as a separate data set.
The test system of experiment [3] is collagenase. The note with it: Yu et al. 1991; cited from earlier work.
Experiment [4] concerns patients with Osteoarthritis. In words: Clinical study: antibiotic treatment of patients with osteoarthritis, KOOS (Knee Injury and Osteoarthritis Outcome Score). Type of experiment: in vivo, human. Conditions: 100 mg daily for 4 weeks. The text has this: Thirty patients were diagnosed and treated for one month with the antibiotic known generically internationally as Doxycycline, this was purchased as Vibramycin from Pfizer. Samples from synovial fluid were taken before and after treatment. We identified 30 patients that had clinical and radiological signs of Osteoarthritis. These patients were informed and signed a paper according to the instructions from the ethical committee (Northern Norway Health Region 5). We used the KOOS (Knee Injury and Osteoarthritis Outcome Score) [Roos et al: Development of a self-administered outcome measure. Journal of Orthopaedic and Sports Physical Therapy 78(2): 88-96, 1998] and the Lysholm score [Ref. […] and Lysholm: Rating systems in the Evaluation of Knee Ligament Injuries. Clinical Orthopaedics an Related Research Number 198 September 1985: 43-49.] During the first visit we took a sample from the synovial fluid. Standard technique, upper lateral portal, using a 10 ml. syringe. […] The samples were immediately put into an icebox and brought to the lab. All the patients were given Vibramycin 100 mg daily for 4 weeks. From the patients where we found the bacteria, we took new synovial-fluid samples using the same technique. […] KOOS: These parameters were analysed. • Symptoms • Activity of daily living • Sport • Quality of daily living • Pain

In experiment [5] the test system is patients with Osteoarthritis. Briefly: Clinical study: response to antibiotic treatment as determined by direct questions to the patients. Type of experiment: in vivo, human. The note with it: following 4 weeks of treatment. The source says:
Thirty patients were diagnosed and treated for one month with the antibiotic known generically internationally as Doxycycline, this was purchased as Vibramycin from Pfizer. Samples from synovial fluid were taken before and after treatment. We identified 30 patients that had clinical and radiological signs of Osteoarthritis. These patients were informed and signed a paper according to the instructions from the ethical committee (Northern Norway Health Region 5). During the first visit we took a sample from the synovial fluid. Standard technique, upper lateral portal, using a 10 ml. syringe. […] The samples were immediately put into an icebox and brought to the lab. All the patients were given Vibramycin 100 mg daily for 4 weeks. From the patients where we found the bacteria, we took new synovial-fluid samples using the same technique. Table 3 below show a summary of the response to antibiotic treatment with tetracycline for four weeks as determined by direct questions to the patients on how they felt.

As to `CC(O)C(=O)O.O=C(O)c1cn(C2CC2)c2cc(N3CCNCC3)c(F)cc2c1=O` [ciprofloxacinlactate], the “effectiveness against Pseudomonas” value in experiment [1] is recorded as “effective against Pseudomonas”.

Consider `NC(N)=NCCS` [mercaptoethylguanidine], for which the “inflammatory response of Pseudomonas infection due to nitric oxide” value in experiment [2] is listed as “inhibit the inflammatory response”.

For `C[C@H]1c2cccc(O)c2C(O)=C2C(=O)[C@]3(O)C(O)=C(C(N)=O)C(=O)[C@@H](N(C)C)[C@@H]3[C@@H](O)[C@@H]21` [Vibramycin, Doxycycline], in experiment [3], the “the patient's collagenase activity” value is listed as “inhibit the patient's collagenase activity”. Besides, the “clinical scores for the patient (KOOS and Lysholm)” value in experiment [4] is given as “improved all the clinical scores”. Also, the “symptoms in the majority of patients tested” value in experiment [5] is given as “improved symptoms”.
